Measurements: PMC2788672 (Journal of medicinal chemistry, 2009)
≈ marks a conversion by molar mass, not a printed value. Entries after “also recorded” stand apart in the source; their conditions may differ. Where two headings read alike, the source gives them in different places.

What was measured:
[1] = test system: sporogonic development of Plasmodium berghei ANKA in Anopheles stephensi; assay: In vivo transmission-blocking activity; conditions: single i.p. dose to mice
P. carinii [2] = assay: In vitro anti-P. carinii ATP detection assay; assay type: cell-based, Pneumocystis carinii; conditions: for IC50: Pneumocystis carinii
[3] = test system: chloroquine-resistant P. falciparum strain W2; conditions: cited from earlier work; for IC50: read-out: Activity against blood stage forms IC50, ref [28]
P. carinii [4] = conditions: 72 h, ref [28], cited from earlier work; for IC50: read-out: Anti-P. carinii activity IC50
[5] = test system: A549 human adenocarcinoma epithelial lung cells; assay: Cytotoxicity, viability of A549 cells; assay type: cell-based
[6] = test system: chloroquine-resistant P. falciparum strain W2; assay: In vitro blood-schizontocidal activity assay; assay type: cell-based, Plasmodium falciparum; conditions: P. falciparum W2, 48 h incubation
[7] = 24 h, read-out: Anti-P. carinii activity IC50, 24 h
[8] = 48 h, read-out: Anti-P. carinii activity IC50, 48 h
[9] = 72 h, read-out: Anti-P. carinii activity IC50, 72 h

Row | SMILES | IC50 (P. carinii [2]; [7]) | IC50 (P. carinii [2]; [8]) | IC50 (P. carinii [2]; [9]) | Mean no. of oocysts per mosquito±SEM ([1]; dose 10 µmol/kg) | Mean no. of oocysts per mosquito±SEM ([1]; dose 50 µmol/kg) | further results
1 | COc1cc(NC(C)CCCN)c2ncccc2c1 (stereo not shown) [Compound 1, primaquine, reference compound] |  |  |  | 3.5 ±1.2 | 0.2 ±0.2 | IC50 (P. carinii [2]; 24 h, read-out: Anti-P. carinii activity IC50): 4.7 µg/mL (≈ 18.1 µM); IC50 (P. carinii [2]; 48 h, read-out: Anti-P. carinii activity IC50): 2.2 µg/mL (≈ 8.48 µM); IC50 (P. carinii [2]; 72 h, read-out: Anti-P. carinii activity IC50): 0.9 µg/mL (≈ 3.47 µM)
2 | COc1cc(NC(C)CCCN2C(=O)CNC2(C)C)c2ncccc2c1 (stereo not shown) [Compound 4a] |  |  |  |  |  | IC50 [3]: 9.1 µM; Anti-P. carinii activity IC50 (P. carinii [4]): 8.3 µg/mL; IC50 (P. carinii [4]): 23 µM
3 | COc1cc(NC(C)CCCN2C(=O)[C@@H](C)NC2(C)C)c2ncccc2c1 (stereo partly shown) [Compound 4b] |  |  |  |  |  | IC50 [3]: > 50 µM; Activity against blood stage forms IC50 ([3]; ref [28]): complete loss of activity; Anti-P. carinii activity IC50 (P. carinii [4]): 83.7 µg/mL; IC50 (P. carinii [4]): 226 µM
4 | COc1cc(NC(C)CCCN2C(=O)CN(C(C)=O)C2(C)C)c2ncccc2c1 (stereo not shown) [Compound 6] |  | 40.5 µg/mL (≈ 102 µM) | 14.6 µg/mL (≈ 36.6 µM) |  |  | Activity against blood stage forms IC50 [6]: complete loss of activity; also recorded: devoid of blood-schizontocidal activity; Anti-P. carinii activity (activity scale) (P. carinii [2]; 24 h): Inactive
5 | COc1cc(N(C(C)=O)C(C)CCCN2C(=O)CN(C(C)=O)C2(C)C)c2ncccc2c1 (stereo not shown) [Compound 7] |  |  |  |  |  | Activity against blood stage forms IC50 [6]: devoid of blood-schizontocidal activity; Anti-P. carinii activity (activity scale) (P. carinii [2]; 24 h): Inactive; Anti-P. carinii activity (activity scale) (P. carinii [2]; 48 h): Inactive; Anti-P. carinii activity (activity scale) (P. carinii [2]; 72 h): Inactive

More lines, main results first:

Row | IC50 (P. carinii [2]; [7]) | IC50 (P. carinii [2]; [8]) | IC50 (P. carinii [2]; [9]) | SMILES | Mean no. of oocysts per mosquito±SEM ([1]; dose 10 µmol/kg) | Mean no. of oocysts per mosquito±SEM ([1]; dose 50 µmol/kg) | further results
6 | 18.1 µg/mL (≈ 43.8 µM) | 15.5 µg/mL (≈ 37.5 µM) | 11.6 µg/mL (≈ 28.1 µM) | COc1cc(NC(C)CCCN2C(=O)CN(C(=O)CN)C2(C)C)c2ncccc2c1 (stereo not shown) [Compound 5a] |  |  | Cytotoxicity (A549 cells) IC50 at 72 h [5]: no toxicity
7 | 16.9 µg/mL (≈ 39.5 µM) | 8 µg/mL (≈ 18.7 µM) | 3.6 µg/mL (≈ 8.42 µM) | COc1cc(NC(C)CCCN2C(=O)CN(C(=O)[C@@H](C)N)C2(C)C)c2ncccc2c1 (stereo partly shown) [Compound 5b] |  | 1.3 ±0.3 | 
8 | 24.7 µg/mL (≈ 54.2 µM) | 9.2 µg/mL (≈ 20.2 µM) | 6.2 µg/mL (≈ 13.6 µM) | COc1cc(NC(C)CCCN2C(=O)CN(C(=O)[C@H](N)C(C)C)C2(C)C)c2ncccc2c1 (stereo partly shown) [Compound 5c] |  |  | 
9 | 14.6 µg/mL (≈ 31.1 µM) | 8.4 µg/mL (≈ 17.9 µM) | 5.1 µg/mL (≈ 10.9 µM) | COc1cc(NC(C)CCCN2C(=O)CN(C(=O)[C@H](N)CC(C)C)C2(C)C)c2ncccc2c1 (stereo partly shown) [Compound 5d] |  |  | 
10 | 12.9 µg/mL (≈ 27.5 µM) | 7.5 µg/mL (≈ 16 µM) | 4.6 µg/mL (≈ 9.79 µM) | CC[C@H](C)[C@@H](N)C(=O)N1CC(=O)N(CCCC(C)Nc2cc(OC)cc3cccnc23)C1(C)C (stereo partly shown) [Compound 5e, 1-isoleucyl-3-(4-(6-methoxyquinolin-8-ylamino)pentyl)-2,2-dimethylimidazolidin-4-one] | 4.9 ±0.6 | 1.5 ±0.5 | 
11 | 11.6 µg/mL (≈ 23.8 µM) | 6.4 µg/mL (≈ 13.1 µM) | 3.4 µg/mL (≈ 6.97 µM) | COc1cc(NC(C)CCCN2C(=O)CN(C(=O)[C@H](N)CCSC)C2(C)C)c2ncccc2c1 (stereo partly shown) [Compound 5f] | 1.2 ±0.4 | 3.8 ±1.4 | 
12 | 12.1 µg/mL (≈ 24 µM) | 9.3 µg/mL (≈ 18.5 µM) | 5.1 µg/mL (≈ 10.1 µM) | COc1cc(NC(C)CCCN2C(=O)CN(C(=O)[C@H](N)Cc3ccccc3)C2(C)C)c2ncccc2c1 (stereo partly shown) [Compound 5g] | 3.7 ±1.2 | 2.2 ±0.8 | 
13 |  | 32.2 µg/mL (≈ 75.3 µM) | 22.3 µg/mL (≈ 52.2 µM) | COc1cc(NC(C)CCCN2C(=O)[C@@H](C)N(C(=O)CN)C2(C)C)c2ncccc2c1 (stereo partly shown) [Compound 5h] | 3.3 ±1.1 | 1.8 ±0.5 | Cytotoxicity (A549 cells) IC50 at 72 h [5]: no toxicity; Anti-P. carinii activity (activity scale) (P. carinii [2]; 24 h): Inactive
